Measured values taken from patent US8562949B2, “Radiolabeled dihydrotetrabenazine derivatives and their use as imaging agents” (The Trustees of the University of Pennsylvania, priority 2006, dated 2013).

Tests used:
[1] = Partition coefficient 1-octanol/phosphate buffer; format: physicochemical; details: pH 7.4, 1-octanol and phosphate buffer
Description: Partition coefficients were measured by mixing the [^18F]tracer with 3 g each of 1-octanol and buffer (0.1 M phosphate, pH 7.4) in a test tube. The test tube was vortexed for 3 min at room temperature, followed by centrifugation for 5 min. Two weighed samples (0.5 g each) from the 1-octanol and buffer layers were counted in a well counter. The partition coefficient was determined by calculating the ratio of cpm/g of 1-octanol to that of buffer. Samples from the 1-octanol layer were re-partitioned until consistent partitions of coefficient values were obtained. Values are the mean±SEM of three independent experiments, each in duplicates.

[2] = target: VMAT2 (Mus musculus, UniProt Q8BRU6); assay: Blocking study in normal mice, co-injection of DTBZ or raclopride; format: in vivo; set-up: from tissue; host or cells: living ICR mice and lesioned mice; brain regions dissected after iv injection; details: 30 min after iv
VMAT2 (Mus musculus, UniProt Q8BRU6), sequence (Q8BRU6 whole entry): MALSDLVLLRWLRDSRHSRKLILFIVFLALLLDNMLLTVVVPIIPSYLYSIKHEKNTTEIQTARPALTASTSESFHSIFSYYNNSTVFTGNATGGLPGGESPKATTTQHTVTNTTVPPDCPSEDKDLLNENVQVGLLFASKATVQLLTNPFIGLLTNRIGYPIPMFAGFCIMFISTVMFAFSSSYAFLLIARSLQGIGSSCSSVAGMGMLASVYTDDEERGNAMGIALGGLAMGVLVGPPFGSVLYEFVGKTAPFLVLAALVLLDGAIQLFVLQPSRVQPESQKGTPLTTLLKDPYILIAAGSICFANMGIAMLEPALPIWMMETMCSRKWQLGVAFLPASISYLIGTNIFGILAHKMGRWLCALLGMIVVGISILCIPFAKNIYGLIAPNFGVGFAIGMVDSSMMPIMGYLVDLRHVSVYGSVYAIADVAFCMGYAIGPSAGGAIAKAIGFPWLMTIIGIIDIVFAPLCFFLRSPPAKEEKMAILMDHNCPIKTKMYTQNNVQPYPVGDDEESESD
Description: While under isoflurane anesthesia, 0.15 mL of a 0.1% bovine serum albumin solution containing [^18F]tracers (10-20 μCi) were injected directly into the tail vein of ICR mice (22-25 g, male) The mice (n=3 for each time point) were sacrificed by cervical dislocation at indicated time points post injection. The organs of interest were removed and weighed, and the radioactivity was counted with an automatic gamma counter. The percentage dose per organ was calculated by a comparison of the tissue counts to suitably diluted aliquots of the injected material. Total activities of blood were calculated under the assumption that they were 7% of the total body weight. The % dose/g of samples was calculated by comparing the sample counts with the count of the diluted initial dose. Different regions corresponding to striatum (ST), hippocampus (HP), cerebellum (CB), and cortex (CX) were dissected out from the brain.
Blocking studies were carried out by co-injection (iv) of the ^18F tracer with (±)DTBZ (3 mg/kg) or raclopride (1.2 mg/kg) into the animals. Thirty minutes after the injection, the animals were sacrificed and the brain regions including ST, HP, CB and CX were dissected out and the % dose/g were calculated. The ratios of target (ST) vs nontarget (CB) were compared between control and blocked groups.

[3] = target: VMAT2 sites (Mus musculus, UniProt Q8BRU6); details: lesioned mice
VMAT2 sites, sequence (Q8BRU6 whole entry): as above
Description: Thirty minutes after injection, the mice were sacrificed and the brains removed. Different regions corresponding to striatum (ST), hippocampus (HP), cerebellum (CB), and cortex (CX) were dissected. In particular, the lesioned region was separated from non-lesioned area of the striatal tissues. Samples were counted in a gamma counter with two different window settings for F-18 and I-125, respectively, to obtain the regional distribution of each tracer.
To measure the degree of lesion, a dual-isotope experiment comparing the striatal uptakes in lesioned vs. unlesioned sites using [^18F]FP-DTBZ was performed. A marker [^125I]IPT (selective for dopamine transporters) was injected simultaneously.

[4] = Baboon microPET imaging (FIG. 7); format: in vivo; details: iv, 7 mCi, 70-90 min
[5] = target: VMAT2 (Rattus norvegicus, UniProt Q01827); assay: Blocking of pancreatic signal by DTBZ in rats; format: in vivo; set-up: from tissue; host or cells: living rats; organs dissected after iv injection; details: 30 min, DTBZ 3.8 mg/kg pretreatment
VMAT2 (Rattus norvegicus, UniProt Q01827), sequence (Q01827 whole entry): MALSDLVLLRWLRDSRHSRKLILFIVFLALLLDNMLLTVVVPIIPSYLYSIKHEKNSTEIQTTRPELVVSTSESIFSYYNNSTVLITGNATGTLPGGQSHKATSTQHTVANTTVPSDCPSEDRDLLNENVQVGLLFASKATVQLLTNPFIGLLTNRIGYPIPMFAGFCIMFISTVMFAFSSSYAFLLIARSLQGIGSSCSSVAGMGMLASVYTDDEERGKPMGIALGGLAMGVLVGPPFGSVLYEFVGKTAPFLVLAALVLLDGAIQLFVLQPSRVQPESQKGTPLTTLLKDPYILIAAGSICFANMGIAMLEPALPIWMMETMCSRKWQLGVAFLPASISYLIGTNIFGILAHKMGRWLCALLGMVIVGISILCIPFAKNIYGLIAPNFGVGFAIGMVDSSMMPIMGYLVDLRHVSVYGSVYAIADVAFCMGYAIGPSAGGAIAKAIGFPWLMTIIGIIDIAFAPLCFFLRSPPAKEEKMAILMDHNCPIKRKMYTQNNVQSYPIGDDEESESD
Description: Rats were pretreated with non-radiolabeled DBTZ (3.8 mg/kg) five minutes prior to injection with (+)-6b.

Q: With `COc1cc2c(cc1OCCC[18F])CCN1CC(CC(C)C)C(O)CC21` (racemic) [[^18F]6b] as the compound, how does the logD at 3 min [1] read?
A: The logD at 3 min was 2.61.

Q: What about the “Organ distribution Blood” value ([2]; Control) of the same compound?
A: Its value is 1.41 ± 0.20 % dose/g.

Q: What about the “Organ distribution Bone” value ([2]; Control) of the same compound?
A: Its value is 6.06 ± 1.11 % dose/g.

Q: And the “Organ distribution Brain” value ([2]; Control)?
A: The value was 1.40 ± 0.12 % dose/g.

Q: And the “Organ distribution Heart” value ([2]; Control)?
A: Its value is 2.05 ± 0.13 % dose/g.

Q: What about the “Organ distribution Kidney” value ([2]; Control) of the same compound?
A: Its value is 5.90 ± 0.42 % dose/g.

Q: And the “Organ distribution Liver” value ([2]; Control)?
A: Its value is 13.9 ± 1.15 % dose/g.

Q: And the “Organ distribution Lung” value ([2]; Control)?
A: The value was 2.78 ± 0.20 % dose/g.

Q: And the “Organ distribution Muscle” value ([2]; Control)?
A: Its value is 1.06 ± 0.06 % dose/g.

Q: What about the “Organ distribution Skin” value ([2]; Control) of the same compound?
A: Its value is 1.48 ± 0.09 % dose/g.

Q: What about the “Organ distribution Spleen” value ([2]; Control) of the same compound?
A: Its value is 2.90 ± 0.14 % dose/g.

Q: What about the “Ratio (vs CB) Cortex” value ([2]; Control) of the same compound?
A: Its value is 1.15.

Q: What about the “Ratio (vs CB) Hippocampus” value ([2]; Control) of the same compound?
A: The value was 1.36.

Q: What about the “Ratio (vs CB) Hypothalamus” value ([2]; Control) of the same compound?
A: Its value is 2.54.

Q: And the “Ratio (vs CB) Striatum” value ([2]; Control)?
A: Its value is 3.40.

Q: What about the “Regional brain distribution Cerebellum (CB)” value ([2]; Control) of the same compound?
A: The value was 1.05 ± 0.09 % dose/g.

Q: And the “Regional brain distribution Cortex” value ([2]; Control)?
A: The value was 1.21 ± 0.15 % dose/g.

Q: What about the “Regional brain distribution Hippocampus” value ([2]; Control) of the same compound?
A: The value was 1.43 ± 0.12 % dose/g.

Q: What about the “Regional brain distribution Hypothalamus” value ([2]; Control) of the same compound?
A: Its value is 2.67 ± 0.30 % dose/g.

Q: What about the “Regional brain distribution Striatum” value ([2]; Control) of the same compound?
A: The value was 3.57 ± 0.30 % dose/g.

Q: What about the “Organ distribution Blood” value ([2]; with 1.2 mg/kg raclopride) of the same compound?
A: Its value is 1.60 ± 0.08 % dose/g.

Q: What about the “Organ distribution Bone” value ([2]; with 1.2 mg/kg raclopride) of the same compound?
A: Its value is 6.03 ± 1.07 % dose/g.

Q: And the “Organ distribution Brain” value ([2]; with 1.2 mg/kg raclopride)?
A: The value was 1.64 ± 0.16 % dose/g.

Q: What about the “Organ distribution Heart” value ([2]; with 1.2 mg/kg raclopride) of the same compound?
A: The value was 2.29 ± 0.06 % dose/g.

Q: And the “Organ distribution Kidney” value ([2]; with 1.2 mg/kg raclopride)?
A: Its value is 6.01 ± 0.50 % dose/g.

Q: And the “Organ distribution Liver” value ([2]; with 1.2 mg/kg raclopride)?
A: The value was 14.6 ± 0.44 % dose/g.

Q: What about the “Organ distribution Lung” value ([2]; with 1.2 mg/kg raclopride) of the same compound?
A: The value was 3.34 ± 0.24 % dose/g.

Q: And the “Organ distribution Muscle” value ([2]; with 1.2 mg/kg raclopride)?
A: The value was 1.15 ± 0.03 % dose/g.

Q: And the “Organ distribution Skin” value ([2]; with 1.2 mg/kg raclopride)?
A: Its value is 1.58 ± 0.09 % dose/g.

Q: And the “Organ distribution Spleen” value ([2]; with 1.2 mg/kg raclopride)?
A: The value was 3.25 ± 0.20 % dose/g.

Q: What about the “Ratio (vs CB) Cortex” value ([2]; with 1.2 mg/kg raclopride) of the same compound?
A: Its value is 1.18.

Q: And the “Ratio (vs CB) Hippocampus” value ([2]; with 1.2 mg/kg raclopride)?
A: Its value is 1.59.

Q: And the “Ratio (vs CB) Hypothalamus” value ([2]; with 1.2 mg/kg raclopride)?
A: Its value is 2.12.

Q: What about the “Ratio (vs CB) Striatum” value ([2]; with 1.2 mg/kg raclopride) of the same compound?
A: The value was 3.93.

Q: And the “Regional brain distribution Cerebellum (CB)” value ([2]; with 1.2 mg/kg raclopride)?
A: Its value is 1.19 ± 0.11 % dose/g.

Q: And the “Regional brain distribution Cortex” value ([2]; with 1.2 mg/kg raclopride)?
A: Its value is 1.41 ± 0.15 % dose/g.

Q: What about the “Regional brain distribution Hippocampus” value ([2]; with 1.2 mg/kg raclopride) of the same compound?
A: The value was 1.89 ± 0.85 % dose/g.

Q: What about the “Regional brain distribution Hypothalamus” value ([2]; with 1.2 mg/kg raclopride) of the same compound?
A: Its value is 2.52 ± 0.77 % dose/g.

Q: What about the “Regional brain distribution Striatum” value ([2]; with 1.2 mg/kg raclopride) of the same compound?
A: The value was 4.67 ± 1.29 % dose/g.

Q: What about the “Organ distribution Blood” value ([2]; with 3 mg/kg (+)DTBZ) of the same compound?
A: The value was 1.67 ± 0.04 % dose/g.

Q: What about the “Organ distribution Bone” value ([2]; with 3 mg/kg (+)DTBZ) of the same compound?
A: Its value is 6.54 ± 0.84 % dose/g.

Q: What about the “Organ distribution Brain” value ([2]; with 3 mg/kg (+)DTBZ) of the same compound?
A: The value was 0.86 ± 0.04 % dose/g.

Q: What about the “Organ distribution Heart” value ([2]; with 3 mg/kg (+)DTBZ) of the same compound?
A: The value was 2.36 ± 0.07 % dose/g.

Q: What about the “Organ distribution Kidney” value ([2]; with 3 mg/kg (+)DTBZ) of the same compound?
A: The value was 4.94 ± 3.38 % dose/g.

Q: What about the “Organ distribution Liver” value ([2]; with 3 mg/kg (+)DTBZ) of the same compound?
A: Its value is 14.0 ± 0.56 % dose/g.

Q: And the “Organ distribution Lung” value ([2]; with 3 mg/kg (+)DTBZ)?
A: The value was 3.27 ± 0.17 % dose/g.

Q: What about the “Organ distribution Muscle” value ([2]; with 3 mg/kg (+)DTBZ) of the same compound?
A: The value was 1.28 ± 0.07 % dose/g.

Q: What about the “Organ distribution Skin” value ([2]; with 3 mg/kg (+)DTBZ) of the same compound?
A: The value was 1.67 ± 0.02 % dose/g.

Q: And the “Organ distribution Spleen” value ([2]; with 3 mg/kg (+)DTBZ)?
A: The value was 2.67 ± 0.17 % dose/g.

Q: What about the “Ratio (vs CB) Cortex” value ([2]; with 3 mg/kg (+)DTBZ) of the same compound?
A: Its value is 1.03.

Q: What about the “Ratio (vs CB) Hippocampus” value ([2]; with 3 mg/kg (+)DTBZ) of the same compound?
A: The value was 0.94.

Q: And the “Ratio (vs CB) Hypothalamus” value ([2]; with 3 mg/kg (+)DTBZ)?
A: The value was 1.04.

Q: What about the “Ratio (vs CB) Striatum” value ([2]; with 3 mg/kg (+)DTBZ) of the same compound?
A: The value was 0.98.

Q: What about the “Regional brain distribution Cerebellum (CB)” value ([2]; with 3 mg/kg (+)DTBZ) of the same compound?
A: The value was 0.89 ± 0.16 % dose/g.

Q: And the “Regional brain distribution Cortex” value ([2]; with 3 mg/kg (+)DTBZ)?
A: Its value is 0.91 ± 0.13 % dose/g.

Q: And the “Regional brain distribution Hippocampus” value ([2]; with 3 mg/kg (+)DTBZ)?
A: The value was 0.83 ± 0.27 % dose/g.

Q: And the “Regional brain distribution Hypothalamus” value ([2]; with 3 mg/kg (+)DTBZ)?
A: The value was 0.92 ± 0.23 % dose/g.

Q: What about the “Regional brain distribution Striatum” value ([2]; with 3 mg/kg (+)DTBZ) of the same compound?
A: Its value is 0.87 ± 0.18 % dose/g.

Q: With `COc1cc2c(cc1OCCC[18F])CCN1C[C@@H](CC(C)C)[C@H](O)C[C@H]21` [[^18F]-(+)-6b] as the compound, how does the “correlation (r) of lesioned-site uptake with [125I]IPT data” value [3] read?
A: The value was 0.95.

Q: And the microPET uptake [4]?
A: Its microPET uptake is “no indication of skull (bone) uptake”.

Q: And the “Blocking, Pancreas” value [5]?
A: The value was 30%.

Q: What about the “Blocking, Striatum” value [5] of the same compound?
A: The value was greater than 90%.
